In patent US12582614B2, “Composition for preventing, alleviating or treating sarcopenia, containing D-ribo-2-hexulose as active ingredient” (KYUNGPOOK NATIONAL UNIVERSITY INDUSTRY-ACADEMIC COOPERATION …, priority 2021, dated 2026):

What was measured:
Format in all cases: in vivo, C57BL/6J male mice
[1] = tested on: gastrocnemius tissue; test: H&E and Sirius red staining of gastrocnemius tissue
Protocol: For morphological tissue observation, parts of liver and muscle tissues were fixed with a 10% formaldehyde solution for 24 hours. Thereafter, the samples were subjected to replacement with the same solution twice, dehydrated twice with ethanol, embedded in paraffin, and treated with poly-L-lysine to prepare tissue slices having a thickness of 5 μm. For morphological analysis, among the prepared tissue sections, the liver tissue was stained with H&E and MT, and the muscle tissue was stained with H&E and Sirius red, and magnified 200 times under an optical microscope. For IHC analysis, the muscle tissue was stained with IGF-1 and Myostatin, and then observed under an optical microscope.

[2] = tested on: CISH, CerS1, Adiponectin, Adipsin, CIDEC, Haptoglobin, Neuronatin, SCD1; test: mRNA sequencing of gastrocnemius tissue (differentially expressed genes); conditions: vs NC group, FC cutoff 2 or more, p < 0.05
[3] = tested on: Mitochondrial respiratory chain complexes; test: BN-PAGE of mitochondrial respiratory chain complexes; conditions: quadriceps mitochondria, vs NC group
Protocol: Mitochondria were isolated from the quadriceps muscle using the Potter-Elvehjem method. To extract respiratory SCs, a sample buffer cocktail was prepared using 8 μL of digitonin (Invitrogen, USA) per 50 μg of protein, 4×5 μL of a sample buffer (Invitrogen, USA) per 50 μg of protein, and 7 μL of water per 50 μg of protein. Thereafter, the solution was mixed with mitochondria. The BN-PAGE run and transfer were performed. An Ox-Phos Rodent WB antibody cocktail (Invitrogen, USA) was reacted at room temperature for 2 hours. Then, a secondary antibody solution Alk-Phos (Invitrogen, USA) was reacted at room temperature for an hour. Immunoreactive bands were developed using chromogen (BCIP/NBT). Then, the bands in a final state were checked.

[4] = tested on: aged mice; test: Weights of quadriceps, anterior tibialis and gastrocnemius tissues; conditions: per 100 g body weight, DRH group vs NC group
Protocol: Specifically, a negative control group (NC, n=7, American Institute of Nutrition AIN-93G Semisynthetic diet); a D-ribo-2-hexulose-treated group (D-ribo-2-hexulose; DRH, n=7; a portion of cellulose in AIN-93G was replaced with 3% D-ribo-2-hexulose). […] The dose of D-ribo-2-hexulose was set at 3% based on previous animal studies. In the previous studies, the dose of D-ribo-2-hexulose was determined to be 3% in order to investigate a biological effect at a lower dose than the dose. During the experiment, the mice had free access to distilled water, and the food intakes and body weights of the mice were measured weekly, and blood glucose was measured once every 4 weeks. All animal experiments were approved by the Animal Research Ethics Committee of KyungPook National University (Approval Number: KNU-2020-109).

`O=C(CO)[C@H](O)[C@H](O)[C@H](O)CO` [DRH, D-ribo-2-hexulose] was tested, and the “progression of fibrosis (Sirius red staining)” value ([1]; DRH group) was “reduced to that of the YC group”, the “size of muscle fibers (H&E staining)” value ([1]; reduction observed in NC group) was “improved” and the “Adiponectin expression (mRNA-seq)” value [2] was “down-regulated”. For the same compound, the “Adipsin expression (mRNA-seq)” value [2] was “down-regulated”, the “CIDEC expression (mRNA-seq)” value [2] was “down-regulated” and the “CISH expression (mRNA-seq)” value [2] was “up-regulated”. For the same compound, the “CerS1 expression (mRNA-seq)” value [2] was “up-regulated”, the “Haptoglobin expression (mRNA-seq)” value [2] was “down-regulated” and the “Neuronatin expression (mRNA-seq)” value [2] was “down-regulated”. For the same compound, the “SCD1 expression (mRNA-seq)” value [2] was “down-regulated”, the “mitochondrial respiratory chain Complex IV” value [3] was “significantly increased” and the “weight of the left anterior tibialis” value [4] was “significantly increased”. The “weights of the right and left quadriceps” value [4] was “significantly increased”.
